Assay [1] concerns the target human RORγt ligand binding domain (RORγt LBD) (Homo sapiens (Human), UniProt P51449). The assay is described as follows: RORγt ThermoFluor assay. The source says:
ThermoFluor® is a fluorescence based assay that estimates ligand binding affinities by measuring the effect of a ligand on protein thermal stability (Pantoliano, M. W., Petrella, E. C., Kwasnoski, J. D., Lobanov, V. S., Myslik, J., Graf, E., Carver, T., Asel, E., Springer, B. A., Lane, P., and Salemme, F. R. (2001) High-density miniaturized thermal shift assays as a general strategy for drug discovery. J Biomol Screen 6, 429-40, and Matulis, D., Kranz, J. K., Salemme, F. R., and Todd, M. J. (2005) Thermodynamic stability of carbonic anhydrase: measurements of binding affinity and stoichiometry using ThermoFluor. Biochemistry 44, 5258-66). This approach is applicable to a wide variety of systems, and rigorous in theoretical interpretation through quantitation of equilibrium binding constants (KD).
The shift in the melting point described as a ΔTm is proportional to the concentration and affinity of the ligand.
RORγt ThermoFluor® Assay Construct
Nucleotides 850-1635 (SEQ ID NO:2) coding for the wild type human RORγt ligand binding domain (RORγt LBD) were cloned into the pHIS 1 vector, a modified pET E. coli expression vector (Accelagen, San Diego), containing an in-frame N-terminal His-tag and a TurboTEV protease cleavage site (ENLYFQG, SEQ ID NO:3) upstream of the cloned insert sequence. The amino acid sequence for the RORγt construct used in the Thermofluor® assay is shown as SEQ ID NO:4.
ThermoFluor® experiments were carried out using instruments owned by Janssen Research and Development, L.L.C. through its acquisition of 3-Dimensional Pharmaceuticals, Inc. 1,8-ANS (Invitrogen) was used as a fluorescent dye. Protein and compound solutions are dispensed into black 384-well polypropylene PCR microplates (Abgene) and overlayed with silicone oil (1 μL, Fluka, type DC 200) to prevent evaporation.
Bar-coded assay plates are robotically loaded onto a thermostatically controlled PCR-type thermal block and then heated at a typical ramp-rate of 1° C./min for all experiments. Fluorescence was measured by continuous illumination with UV light (Hamamatsu LC6) supplied via fiber optic and filtered through a band-pass filter (380-400 nm; >6 OD cutoff). Fluorescence emission of the entire 384-well plate was detected by measuring light intensity using a CCD camera (Sensys, Roper Scientific) filtered to detect 500±25 nm, resulting in simultaneous and independent readings of all 384 wells. Images were collected at each temperature, and the sum of the pixel intensity in a given area of the assay plate was recorded versus temperature. Reference wells contained RORγt without compounds, and the assay conditions were as follows: • 0.065 mg/mL RORγt • 60 μM 1,8-ANS • 100 mM Hepes, pH 7.0 • 10 mM NaCl • 2.5 mM GSH • 0.002% Tween-20
Project compounds were arranged in a pre-dosed mother plate (Greiner Bio-one) wherein compounds are serially diluted in 100% DMSO by 1:2 from a high concentration of 10 mM over 12 columns within a series (column 12 is a reference well containing DMSO, no compound). The compounds were robotically dispensed directly into assay plates (1×=46 nL) using a Hummingbird capillary liquid handling instrument (Digilab). Following compound dispense, protein and dye in buffer was added to achieve the final assay volume of 3 μL, followed by 1 μL of silicone oil.
The binding affinity was estimated as described previously (Matulis, D., Kranz, J. K., Salemme, F. R., and Todd, M. J. (2005) Thermodynamic stability of carbonic anhydrase: measurements of binding affinity and stoichiometry using ThermoFluor®. Biochemistry 44, 5258-66) using the following thermodynamic parameters of protein unfolding: […]

In a further assay the target is full-length human RORγt (Homo sapiens (Human), UniProt P51449). The assay is described as follows: RORγt (full-length human) reporter assay, conditions A or B. It is filed as cell-based. The settings on record: for IC50: HEK293T cells, read-out: RORγt (FL) Reporter Assay A or B, IC50; for inhibition at 6 µM: read-out: RORγt (FL) Reporter Assay A or B, % inhibition @ 6 μM, 6 μM compound concentration; for inhibition at 3 µM: 3 μM compound concentration (*). The source says:
RORγt (Full-Length Human) Reporter Assay:
Cells used in this assay were transiently co-transfected with three different plasmids, one expressing the GAL4-DNA binding domain (DBD)-RORγt fusion protein under control of a CMV promoter (NH2-Gal4-DBD:RORC—COOH in pCMV-BD, Stratagene #211342), and two reporter plasmids—the firefly luciferase reporter under control of a GAL4 promoter (pFR-Luc 2×GAL4) and Renilla luciferase reporter under control of CMV promoter (pRL-CMV, Promega #E2261). […] HEK293T cells were plated at 35,000 per well in 96-well plate in medium of DMEM with 10% FBS. After 18-22 hours incubation, the transfection was carried out by using a PEI solution with 170.5 ng total DNA/well (50 ng pCMV-BD-ROR plus 20 ng of pFR-Luc reporter and 0.5 ng of pRL-CMV reporter plus 100 ng Carrier DNA (Clontech #630440) for each well). 4-6 hours after transfection, cells were treated with compounds for overnight in the medium with final concentration of FBS 1.3% and DMSO 0.1%. After overnight (16 to 20 hours) incubation, media were removed and cells were lysed with […] Glo Lysis Buffer (Promega) for 10-15 minutes followed by 10 minute incubation with 50 μL Dual Glo reagent (Promega) at room temperature. Firefly luciferase luminescence was measured using a BMG Pherastar plate reader. To each well, 50 μL Stop and Glo reagent was added and incubated for 10 minutes at room temperature. Renilla luminescence was measured using a BMG Pherastar plate reader. To calculate the effect of compounds on RORγt activity, firefly values were normalized against values of DMSO only and values of reference compound at saturating concentration, then further normalized against Renilla signals. IC50s were generated by plotting final Renilla normalized data against compound concentration and percent inhibition was calculated against DMSO control.
Cells used in this assay were transiently co-transfected with three different plasmids, one expressing the GAL4-DNA binding domain (DBD)-RORγt fusion protein under control of a CMV promoter (NH2-Gal4-DBD:RORC—COOH in pCMV-BD, Stratagene #211342), and two reporter plasmids—the firefly luciferase reporter under control of a GAL4 promoter (pFR-Luc 2×GAL4) and Renilla luciferase reporter under control of CMV promoter (pRL-CMV, Promega #E2261). […] HEK293T cells were plated at 8750 cells per well in 384-well plate in medium of DMEM with 10% FBS. After 18-22 hours incubation, the transfection was carried out by using a PEI solution with 42.6 ng total DNA/well (12.5 ng pCMV-BD-ROR plus 5 ng of pFR-Luc reporter and 0.125 ng of pRL-CMV reporter plus 25 ng Carrier DNA (Clontech #630440) for each well). 4-6 hours after transfection, cells were treated with compounds for overnight in the medium with final concentration of FBS 1.3% and DMSO 0.1%. After overnight (16 to 20 hours) incubation, media were removed and cells were lysed with 20 μL Glo Lysis Buffer (Promega) for 10-15 minutes followed by 10 minute incubation with 20 μL Dual Glo reagent (Promega) at room temperature. Firefly luciferase luminescence was measured using a BMG Pherastar plate reader. To each well, 20 μL Stop and Glo reagent was added and incubated for 10 minutes at room temperature. Renilla luminescence was measured using a BMG Pherastar plate reader. To calculate the effect of compounds on RORγt activity, firefly values were normalized against values of DMSO only and values of reference compound at saturating concentration, then further normalized against Renilla signals. IC50s were generated by plotting final Renilla normalized data against compound concentration and percent inhibition was calculated against DMSO control.

[2] abbreviates: read-out: RORγt (FL) Reporter Assay A or B, % inhibition.

Sequence of full-length human RORγt (P51449 other isoform, or with tags, fused parts or gaps): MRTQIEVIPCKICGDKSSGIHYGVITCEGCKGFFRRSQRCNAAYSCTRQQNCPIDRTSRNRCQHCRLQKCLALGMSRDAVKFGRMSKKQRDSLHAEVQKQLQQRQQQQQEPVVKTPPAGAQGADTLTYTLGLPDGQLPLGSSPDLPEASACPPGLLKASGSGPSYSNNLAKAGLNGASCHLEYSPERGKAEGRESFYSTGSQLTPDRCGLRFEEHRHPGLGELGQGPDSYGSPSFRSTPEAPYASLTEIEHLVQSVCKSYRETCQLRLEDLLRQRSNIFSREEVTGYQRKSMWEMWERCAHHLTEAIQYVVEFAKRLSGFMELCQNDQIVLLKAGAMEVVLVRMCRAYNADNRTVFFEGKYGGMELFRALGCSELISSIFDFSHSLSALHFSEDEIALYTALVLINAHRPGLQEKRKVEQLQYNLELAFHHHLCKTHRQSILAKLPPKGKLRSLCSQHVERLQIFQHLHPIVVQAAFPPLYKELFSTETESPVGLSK
Sequence of human RORγt ligand binding domain (RORγt LBD) (P51449 other isoform, or with tags, fused parts or gaps): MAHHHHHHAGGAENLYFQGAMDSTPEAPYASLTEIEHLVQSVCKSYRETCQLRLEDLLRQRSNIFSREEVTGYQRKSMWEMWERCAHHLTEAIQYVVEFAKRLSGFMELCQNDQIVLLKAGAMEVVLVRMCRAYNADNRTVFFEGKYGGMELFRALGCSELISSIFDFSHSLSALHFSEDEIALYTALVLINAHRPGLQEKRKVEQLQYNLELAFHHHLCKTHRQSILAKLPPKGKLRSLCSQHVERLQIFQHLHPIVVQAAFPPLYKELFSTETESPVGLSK

In assay [1], `[2H]C([2H])([2H])Oc1cc(CCC(F)(F)F)ccc1-n1c(CC)nc(C(=O)NC[C@H]2CC[C@H](S(C)(=O)=O)CC2)c1C#N` [Example 29, 5-Cyano-2-ethyl-1-(2-(methoxy-d3)-4-(3,3,3-trifluoropropyl)phenyl)-N-(((1r,4r)-4-(methylsulfonyl)cyclohexyl)methyl)-1H-imidazole-4-carboxamide] gave a Kd of 15 nM. Also, on full-length human RORγt, the IC50 came to 87 nM and the inhibition at 6 µM turned out to be 95%.
`CCc1nc(C(=O)NC[C@H]2CC[C@H](S(C)(=O)=O)CC2)c(C(N)=O)n1-c1ccc(CCC(F)(F)F)cc1F` [Example 94, 2-Ethyl-1-(2-fluoro-4-(3,3,3-trifluoropropyl)phenyl)-N^4-(((1r,4r)-4-(methylsulfonyl)cyclohexyl)methyl)-1H-imidazole-4,5-dicarboxamide]: in assay [1], binding was put at a Kd of 250 nM. For the same molecule, the inhibition at 2 µM on full-length human RORγt (2 μM compound concentration (**), read-out: RORγt (FL) Reporter Assay A or B, % inhibition) came out at 47%. Besides, the IC50 at full-length human RORγt is 490 nM.
In turn, `CCc1nc(C(=O)NC[C@H]2CC[C@H](S(C)(=O)=O)CC2)cn1-c1cnc(CCC(F)(F)F)cc1OC` [Example 116, 2-Ethyl-1-(4-methoxy-6-(3,3,3-trifluoropropyl)pyridin-3-yl)-N-(((1r,4r)-4-(methylsulfonyl)cyclohexyl)methyl)-1H-imidazole-4-carboxamide] registered a Kd in assay [1] of 5000 nM. Further, at full-length human RORγt, the IC50 came out at 3000 nM and the inhibition at 6 µM was 30%.
For `CCCc1nc(C(=O)NC[C@H]2CC[C@H](S(C)(=O)=O)CC2)c(Cl)n1-c1ccc(N[C@H](C)C(F)(F)F)cc1OC` [Example 11, 5-Chloro-1-(2-methoxy-4-(((R)-1,1,1-trifluoropropan-2-yl)amino)phenyl)-N-(((1r,4R)-4-(methylsulfonyl)cyclohexyl)methyl)-2-propyl-1H-imidazole-4-carboxamide], the dissociation constant (Kd) in assay [1] worked out at 1 nM. On full-length human RORγt, the IC50 turned out to be 39 nM and the inhibition at 6 µM was 102%.
Regarding `CCc1nc(C(=O)NC[C@]2(O)CC[C@@H](S(C)(=O)=O)CC2)c(C)n1-c1ncc(CC(C)(C)C(F)(F)F)cc1OC` [Example 127, 2-Ethyl-N-(((1s,4s)-1-hydroxy-4-(methylsulfonyl)cyclohexyl)methyl)-1-(3-methoxy-5-(3,3,3-trifluoro-2,2-dimethylpropyl)pyridin-2-yl)-5-methyl-1H-imidazole-4-carboxamide], the Kd in assay [1] is 21 nM. Besides, on full-length human RORγt, the IC50 was 140 nM and the inhibition at 6 µM was 98%.
The molecule `CCc1nc(C(=O)NC[C@@H]2CC[C@@H](S(C)(=O)=O)C[C@H]2O)c(Cl)n1-c1ncc(CC(C(F)(F)F)C(F)(F)F)cc1OC(F)F` (stereo in doubt) [Example 65, 5-Chloro-1-(3-(difluoromethoxy)-5-(3,3,3-trifluoro-2-(trifluoromethyl)propyl)pyridin-2-yl)-2-ethyl-N-(((1S*,2R*,4R*)-2-hydroxy-4-(methylsulfonyl)cyclohexyl)methyl)-1H-imidazole-4-carboxamide] gave a dissociation constant (Kd) in assay [1] of 28 nM. Besides, at full-length human RORγt (setting [2]), the inhibition at 3 µM stood at 105%. At full-length human RORγt, the IC50 turned out to be 110 nM.
With `CCc1nc(C(=O)NC[C@]2(O)CC[C@@H](S(C)(=O)=O)CC2)c(F)n1-c1ccc(CCC(F)(F)F)cc1OC` [Example 14, 2-Ethyl-5-fluoro-N-(((1s,4s)-1-hydroxy-4-(methylsulfonyl)cyclohexyl)methyl)-1-(2-methoxy-4-(3,3,3-trifluoropropyl)phenyl)-1H-imidazole-4-carboxamide], binding in assay [1] was characterised by a dissociation constant (Kd) of 83 nM. On full-length human RORγt, the IC50 came out at 320 nM and the inhibition at 6 µM turned out to be 83%.
As to `CCc1nc(C(=O)NC[C@H]2CC[C@H](S(C)(=O)=O)CC2)c(Cl)n1-c1ncc(CC(C)(C)C(F)(F)F)cc1C` [Example 74, 5-Chloro-2-ethyl-1-(3-methyl-5-(3,3,3-trifluoro-2,2-dimethylpropyl)pyridin-2-yl)-N-(((1r,4r)-4-(methylsulfonyl)cyclohexyl)methyl)-1H-imidazole-4-carboxamide], the Kd in assay [1] is 34 nM. For the same molecule, the inhibition at 3 µM on full-length human RORγt (setting [2]) was determined as 116%. Besides, the IC50 at full-length human RORγt turned out to be 92 nM.
In the case of `CCc1nc(C(=O)NC[C@H]2CC[C@H](S(C)(=O)=O)CC2)c(Cl)n1-c1ccc(CC(C)(C)C(F)(F)F)c(F)c1` [Example 103, 5-Chloro-2-ethyl-1-(3-fluoro-4-(3,3,3-trifluoro-2,2-dimethylpropyl)phenyl)-N-(((1r,4r)-4-(methylsulfonyl)cyclohexyl)methyl)-1H-imidazole-4-carboxamide], binding in assay [1] was put at a Kd of 4.4 nM.
In turn, `CCc1nc(C(=O)NC[C@]2(O)CC[C@@H](S(C)(=O)=O)CC2)c(Cl)n1-c1ccc(CC(C)(C)C(F)(F)F)c(F)c1` [Example 104, 5-Chloro-2-ethyl-1-(3-fluoro-4-(3,3,3-trifluoro-2,2-dimethylpropyl)phenyl)-N-(((1s,4s)-1-hydroxy-4-(methylsulfonyl)cyclohexyl)methyl)-1H-imidazole-4-carboxamide] returned a Kd in assay [1] of 5.4 nM.

The values are drawn from patent US11345666B2, “Phenyl and pyridinyl substituted imidazoles as modulators of RORγT” (Janssen Pharmaceutica NV, priority 2018, dated 2022).
